Structures can show the parent of a compound that is named as a salt. Calls of active or inactive are those of the source. The calls are words filed in the database; no cut-off is given here.

The target of series [1] is T1, Estrogen receptor (Homo sapiens, UniProt P03372).
T1 sequence (P03372 whole entry): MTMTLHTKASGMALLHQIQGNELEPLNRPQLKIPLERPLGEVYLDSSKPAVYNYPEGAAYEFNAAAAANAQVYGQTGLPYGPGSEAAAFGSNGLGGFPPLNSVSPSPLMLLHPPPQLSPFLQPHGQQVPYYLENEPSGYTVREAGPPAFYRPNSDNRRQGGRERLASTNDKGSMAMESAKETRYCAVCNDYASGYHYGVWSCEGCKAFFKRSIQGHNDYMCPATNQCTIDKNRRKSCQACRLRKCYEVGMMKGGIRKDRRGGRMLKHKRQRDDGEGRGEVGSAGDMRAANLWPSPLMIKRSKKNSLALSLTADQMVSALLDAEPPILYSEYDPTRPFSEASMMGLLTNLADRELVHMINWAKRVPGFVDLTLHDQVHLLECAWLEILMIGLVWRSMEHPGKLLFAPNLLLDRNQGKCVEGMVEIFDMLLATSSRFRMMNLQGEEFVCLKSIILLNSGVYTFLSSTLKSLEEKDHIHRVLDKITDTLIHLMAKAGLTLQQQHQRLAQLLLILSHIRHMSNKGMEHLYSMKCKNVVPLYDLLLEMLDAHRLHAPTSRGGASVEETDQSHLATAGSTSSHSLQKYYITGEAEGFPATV
Description: Displacement of [3H]E2 from GST-fused ERalpha-LBD (unknown origin) expressed in Escherichia coli BL21 incubated for 1 hr by liquid scintillation counting method

Series [2] deals with T2, Estrogen receptor beta (Homo sapiens, UniProt Q92731).
T2 sequence (Q92731 whole entry): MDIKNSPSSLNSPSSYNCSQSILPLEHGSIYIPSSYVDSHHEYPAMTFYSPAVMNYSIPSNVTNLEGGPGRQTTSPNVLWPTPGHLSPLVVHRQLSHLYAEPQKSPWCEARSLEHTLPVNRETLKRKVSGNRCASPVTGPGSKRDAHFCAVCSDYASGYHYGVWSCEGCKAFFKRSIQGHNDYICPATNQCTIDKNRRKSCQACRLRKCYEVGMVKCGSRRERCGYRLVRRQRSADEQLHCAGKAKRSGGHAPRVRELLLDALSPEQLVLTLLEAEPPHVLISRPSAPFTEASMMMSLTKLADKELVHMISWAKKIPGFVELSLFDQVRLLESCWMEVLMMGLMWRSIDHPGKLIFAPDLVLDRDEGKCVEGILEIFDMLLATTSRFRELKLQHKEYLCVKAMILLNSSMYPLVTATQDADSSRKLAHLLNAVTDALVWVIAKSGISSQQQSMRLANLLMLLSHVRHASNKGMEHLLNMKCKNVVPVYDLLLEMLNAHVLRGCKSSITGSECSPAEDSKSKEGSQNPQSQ
Description: (§1) Displacement of [3H]E2 from GST-fused ERbeta-LBD (unknown origin) expressed in Escherichia coli BL21 incubated for 1 hr by liquid scintillation counting method
The nature of another series: in vitro. As to conditions: human.
Series [3] has as its target T3, Estrogen-related receptor gamma (Homo sapiens, UniProt P62508).
T3 sequence (P62508 whole entry): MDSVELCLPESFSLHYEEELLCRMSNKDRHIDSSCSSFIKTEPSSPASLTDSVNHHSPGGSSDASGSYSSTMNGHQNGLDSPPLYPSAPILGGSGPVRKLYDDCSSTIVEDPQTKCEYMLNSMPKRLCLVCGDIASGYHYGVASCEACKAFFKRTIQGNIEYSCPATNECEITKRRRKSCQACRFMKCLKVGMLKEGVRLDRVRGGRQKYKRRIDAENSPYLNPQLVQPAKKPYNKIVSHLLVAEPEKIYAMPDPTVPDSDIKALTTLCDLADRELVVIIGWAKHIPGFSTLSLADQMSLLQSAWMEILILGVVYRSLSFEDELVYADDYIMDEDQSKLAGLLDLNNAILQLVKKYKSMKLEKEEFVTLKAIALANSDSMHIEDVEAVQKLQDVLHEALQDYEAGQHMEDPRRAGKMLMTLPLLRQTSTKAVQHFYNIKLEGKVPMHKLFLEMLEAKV
Description: Binding affinity to human ERRgamma

Series [4] addresses T1, Estrogen receptor. This is another data set of the same source.
Description: Antagonist activity at full length ERalpha (unknown origin) expressed in human HeLa cells incubated for 24 hrs by ERE-driven luciferase reporter gene assay
The next series relates to MCF7. Nature of the series: cells. It is filed as functional, cell-based. As to conditions: Homo sapiens, MCF7, 144 h.
For series [5], the target named is T1, Estrogen receptor. The source holds these as a separate data set.
Description: Agonist activity at full length ERalpha (unknown origin) expressed in human HeLa cells incubated for 24 hrs by ERE-driven luciferase reporter gene assay
In series [6] the target is T2, Estrogen receptor beta. The series can be described thus: Antagonist activity at full length ERbeta (unknown origin) expressed in human HeLa cells incubated for 24 hrs by ERE-driven luciferase reporter gene assay. (In general: In a reporter assay the amount or activity of a reporter protein is the signal.)
Series [7] addresses T2, Estrogen receptor beta. The series can be described thus: Antagonist activity at full length ERbeta (unknown origin) expressed in human HeLa cells assessed as reduction in 17-beta estradiol-induced response at 10^-5M incubated for 24 hrs by ERE-driven luciferase reporter gene assay relative to untreated control. It is filed as cell-based.
Series [8] concerns the target T4, Estrogen receptor (Homo sapiens) (UniProt P03372).
T4 sequence (whole entry): T1 sequence (P03372 whole entry)
The series can be described thus: Antagonist activity at full length ERalpha (unknown origin) expressed in human HeLa cells up to 10 uM incubated for 24 hrs by ERE-driven luciferase reporter gene assay. It is filed as cell-based.

The target of series [9] is T2, Estrogen receptor beta. The source holds these as a separate data set.
Description: as §1

Description for MCF7: Inhibition of 17-beta estradiol-induced cell proliferation in human MCF7 cells incubated for 6 days by acid red-52 staining based assay
Description for in vitro: Cytotoxicity in human MCF7 cells assessed as maximum drug level not causing reduction in cell viability incubated for 6 days by acid red-52 staining based assay

As for `Cl.c1ccc(-c2c3ccccc3nc3cc4ccccc4cc23)cc1`, the IC50 (in general, the concentration needed to halve the response being measured) on Estrogen receptor [1] was 0.915 µM; at Estrogen receptor beta [2], 1.69 µM; in series [3] it was “Not Active”; against Estrogen receptor [4], 9.39 µM; with MCF7, 4.95 µM. In the series “in vitro” (MCF7 cells), the MNTC at 144 h is more than 10 µM.

With `Cl.Oc1ccc2cc3nc4ccccc4c(-c4ccccc4)c3cc2c1`, the EC50 (usually the concentration giving half of the maximal effect) at Estrogen receptor [5] was determined as 1.44 µM. Moreover, the figures for the half-inhibitory concentration (IC50) (against Estrogen receptor [1]; on Estrogen receptor beta [2]; in [3]) were 0.169 µM, 0.154 µM and “Not Active”, respectively. Also, the inhibition result at Estrogen receptor beta [6] is “Active”. Moreover, on Estrogen receptor beta [7], the fold change (FC) is 6. The molecule also displayed an MNTC at 144 h in “in vitro” (MCF7 cells) of more than 10 µM. In addition, the inhibition result in series [8] was “inactive”.

Consider `Cl.FC(F)(F)c1cccc2c(-c3ccccc3)c3cc4ccccc4cc3nc12`, for which the IC50 was 2.65 µM against Estrogen receptor [1], “Not Active” on Estrogen receptor beta [9], “Not Active” in [3] and 3.98 µM with MCF7. Also, the MNTC at 144 h in “in vitro” (MCF7 cells) is more than 10 µM.

`N#Cc1c2ccccc2cc2c(-c3ccccc3)c3ccccc3nc12` registered an MNTC at 144 h in “in vitro” (MCF7 cells) of more than 100 µM.

`FC(F)(F)c1ccc2nc3cc4ccccc4cc3c(-c3ccccc3)c2c1`: in “in vitro” (MCF7 cells), the MNTC at 144 h is more than 10 µM.

With `Cl.Clc1ccc2c(-c3ccccc3)c3cc4ccccc4cc3nc2c1`, the IC50 against Estrogen receptor [1] is 1.65 µM; against Estrogen receptor beta [2], 1.98 µM; in series [3], “Not Active”; in the series on MCF7, 19.6 µM. In addition, the MNTC at 144 h in “in vitro” (MCF7 cells) was more than 100 µM.

As to `Cl.FC(F)(F)c1ccc2cc3nc4ccccc4c(-c4ccccc4)c3cc2c1`, the IC50 was 3.51 µM against Estrogen receptor [1]; “Not Active” against Estrogen receptor beta [9]; “Not Active” in [3]; 5.34 µM at Estrogen receptor [4]; 9.24 µM with MCF7. Further, in the series “in vitro” (MCF7 cells), the MNTC at 144 h is more than 10 µM.

Molecule `FC(F)(F)c1ccc(-c2c3ccccc3nc3cc4ccc(C(F)(F)F)cc4cc23)cc1` returned an MNTC at 144 h in “in vitro” (MCF7 cells) of more than 10 µM. In the series on MCF7, this molecule had a concentration for half-maximal inhibition (IC50) of 9.24 µM.

As to `COc1ccc2cc3nc4ccccc4c(-c4ccccc4)c3cc2c1`, the MNTC at 144 h in “in vitro” (MCF7 cells) was more than 10 µM.

Consider `COc1ccc2c(-c3ccccc3)c3cc4ccccc4cc3nc2c1`, for which the MNTC at 144 h in the series “in vitro” (MCF7 cells) is more than 1 µM.

Take `Cl.Oc1ccc2c(-c3ccccc3)c3cc4ccccc4cc3nc2c1`: the EC50 at Estrogen receptor [5] was found to be 7.4 µM. The 50% inhibitory concentration (IC50) against Estrogen receptor [1] is 0.294 µM; at Estrogen receptor beta [2], 0.306 µM; in series [3], “Not Active”. Further, the inhibition entry at Estrogen receptor beta [6] is “Active”. In the series “in vitro” (MCF7 cells), this molecule registered an MNTC at 144 h of more than 1 µM. Moreover, the inhibition entry in series [8] is “inactive”.

The molecule `FC(F)(F)c1ccc(-c2c3ccc(C(F)(F)F)cc3nc3cc4ccc(C(F)(F)F)cc4cc23)cc1` gave an MNTC at 144 h in the series “in vitro” (MCF7 cells) of more than 1 µM.

For the molecule `c1ccc(-c2c3ccccc3nc3ccccc23)cc1`, in “in vitro” (MCF7 cells), the MNTC at 144 h is more than 100 µM.

Turning to `Cl.Oc1cccc2c(-c3ccccc3)c3cc4ccccc4cc3nc12`, the response on Estrogen receptor [5] was half-maximal at 1.33 µM (EC50). For the same molecule, the figures for the half-maximal inhibitory concentration (IC50) (on Estrogen receptor [1]; at Estrogen receptor beta [2]; in [3]) were 1.08 µM, 0.939 µM and “Not Active”, respectively. Also, the MNTC at 144 h in the series “in vitro” (MCF7 cells) was more than 10 µM. Further, the inhibition entry in [8] is “inactive”.

For the molecule `c1ccc2nc3ccccc3cc2c1`, the MNTC at 144 h in the series “in vitro” (MCF7 cells) is more than 10 µM.

For the molecule `CC/C(=C(\c1ccccc1)c1ccc(OCCN(C)C)cc1)c1ccccc1` [TAMOXIFEN CITRATE], the MNTC at 144 h in “in vitro” (mcf7) is more than 10 µM.

`c1ccc(-c2c3ccccc3nc3nc4ccccc4cc23)cc1` gave an IC50 in the series with MCF7 of 0.951 µM.

In the case of `COc1cccc2c(-c3ccccc3)c3cc4ccccc4cc3nc12`, in the series “in vitro” (MCF7 cells), the MNTC at 144 h was more than 10 µM.

In turn, `COc1ccc2c(-c3ccc(C(F)(F)F)cc3)c3cc4cc(C(F)(F)F)ccc4cc3nc2c1` yielded an MNTC at 144 h in “in vitro” (MCF7 cells) of more than 10 µM.

Regarding `Cl.Clc1c2ccccc2cc2c(-c3ccccc3)c3ccccc3nc12`, the IC50 was 1.68 µM on Estrogen receptor [1], 2.52 µM against Estrogen receptor beta [2], “Not Active” in series [3] and 9.07 µM in the series with MCF7. Further, in “in vitro” (MCF7 cells), the MNTC at 144 h is more than 10 µM.

The values above are taken from ChEMBL document CHEMBL4043216, “Design and synthesis of benzoacridines as estrogenic and anti-estrogenic agents” (Bioorg Med Chem, 2017).
